Experimental data published in ChEMBL document CHEMBL3797106, “Potent and Selective Agonists of Sphingosine 1-Phosphate 1 (S1P1): Discovery and SAR of a Novel Isoxazole Based Series” (J Med Chem, 2016).
Calls of active or inactive are those of the source. No cut-off for these calls is given here.

Key:
[1] = target: Sphingosine 1-phosphate receptor 3 (Homo sapiens, UniProt Q99500); assay: Agonist activity at human S1P3 receptor expressed in EDG3-Ga15-bla HEK293T cell membranes after 45 mins by [35S]-GTPgammaS binding assay; type: functional, HEK-293T
Sequence of Sphingosine 1-phosphate receptor 3 (Q99500 whole entry): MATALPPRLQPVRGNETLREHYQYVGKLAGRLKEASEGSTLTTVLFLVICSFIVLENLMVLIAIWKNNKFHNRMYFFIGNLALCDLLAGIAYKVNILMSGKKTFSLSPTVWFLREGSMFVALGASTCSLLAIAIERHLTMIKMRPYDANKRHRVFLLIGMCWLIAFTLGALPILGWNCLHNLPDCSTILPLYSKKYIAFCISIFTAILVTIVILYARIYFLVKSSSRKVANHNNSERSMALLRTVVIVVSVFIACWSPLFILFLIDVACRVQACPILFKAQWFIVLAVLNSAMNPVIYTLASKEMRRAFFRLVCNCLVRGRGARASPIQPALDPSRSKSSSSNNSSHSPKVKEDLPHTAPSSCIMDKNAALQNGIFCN

[2] = target: Sphingosine 1-phosphate receptor 1 (Homo sapiens, UniProt P21453); assay: Agonist activity at human S1P1 receptor expressed in CHO cell membranes after 45 mins by [35S]-GTPgammaS binding assay; type: functional
Sequence of Sphingosine 1-phosphate receptor 1 (P21453 whole entry): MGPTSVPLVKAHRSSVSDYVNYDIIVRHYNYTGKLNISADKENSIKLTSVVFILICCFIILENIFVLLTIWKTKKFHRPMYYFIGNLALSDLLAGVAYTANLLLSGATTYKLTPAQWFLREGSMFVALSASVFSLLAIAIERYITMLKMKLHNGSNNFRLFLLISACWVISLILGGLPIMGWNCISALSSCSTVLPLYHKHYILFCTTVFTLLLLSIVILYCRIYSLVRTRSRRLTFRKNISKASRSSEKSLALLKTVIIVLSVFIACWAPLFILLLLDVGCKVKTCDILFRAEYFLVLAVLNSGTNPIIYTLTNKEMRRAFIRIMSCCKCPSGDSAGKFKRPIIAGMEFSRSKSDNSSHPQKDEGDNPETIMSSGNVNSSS

Homo sapiens = species: Homo sapiens; assay: Selectivity ratio of EC50 for human S1P3 receptor to EC50 for human S1P1 receptor
Plasma = assay: Ratio drug level in Lewis rat plasma at 1 mg/kg, po at 4 hrs to drug level in Lewis rat plasma at 1 mg/kg, po at 24 hrs; type: ADME, organism-based; details: in vivo
[3] = Plasma concentration in Lewis rat at 1 mg/kg, po measured at 24 hrs; type: ADME, organism-based
[4] = Plasma concentration in Lewis rat at 1 mg/kg, po measured at 4 hrs; type: ADME, organism-based
Rattus norvegicus [5] = assay: Reduction of blood lymphocyte level in Lewis rat at 1 mg/kg, po measured at 24 hrs by hematology analyzer relative to vehicle-treated control; type: functional; design: scale not given: the % may be the effect or the level left
Rattus norvegicus [6] = assay: Reduction of blood lymphocyte level in Lewis rat at 1 mg/kg, po measured at 4 hrs by hematology analyzer relative to vehicle-treated control; type: functional; design: scale not given: the % may be the effect or the level left
Mus musculus = assay: Reduction in clinical score in C57BL/6 mouse experimental autoimmune encephalomyelitis model of multiple sclerosis at 1 mg/kg, po qd for 24 days started from day of immunization measured 3 times per week of compound dosing; type: functional, organism-based

SMILES	EC50 [1] [nM]	EC50 [2] [nM]	Ratio EC50 (Homo sapiens)	Ratio (Plasma)	concentration at 24 h [3] [nM]	concentration at 4 h [4] [nM]	Activity (Rattus norvegicus [5]) [%]	Activity (Rattus norvegicus [6]) [%]	Activity (Mus musculus)
Cc1c(-c2ccccc2)noc1-c1nc(-c2ccc(CN3CC(C(=O)O)C3)cc2)no1	9200	1.7	5500	–	–	–	–	–	–
CCc1c(-c2nc(-c3ccc(CN4CC(C(=O)O)C4)cc3)no2)noc1-c1ccccc1	12000	1.6	7500	11	29	320	52	76	–
CC(C)(C)c1c(-c2nc(-c3ccc(CN4CC(C(=O)O)C4)cc3)no2)noc1-c1ccccc1	2600	5.3	500	9	55	520	52	73	–
CC(C)c1c(-c2nc(-c3ccc(CN4CC(C(=O)O)C4)cc3)no2)noc1-c1ccccc1	5100	1.3	4000	–	–	–	–	–	–
CCCCCCCCc1ccc(CCC(N)(CO)CO)cc1	–	–	–	–	–	–	–	–	Active
O=C(O)C1CN(Cc2ccc(-c3noc(-c4noc(-c5ccccc5)c4C(F)(F)F)n3)cc2)C1	4100	0.98	4100	6	180	1100	85	84	–
CC(F)(F)c1c(-c2nc(-c3ccc(CN4CC(C(=O)O)C4)cc3)no2)noc1-c1ccccc1	1900	0.54	3500	14	100	1400	82	81	–
O=C(O)C1CN(Cc2ccc(-c3noc(-c4cc(-c5ccccc5)no4)n3)cc2)C1	–	25	–	–	–	–	–	–	–
O=C(O)C1CN(Cc2ccc(-c3noc(-c4noc(-c5ccccc5)c4C4CC4)n3)cc2)C1	1800	3.2	540	–	–	–	–	–	–
CCCc1c(-c2ccccc2)noc1-c1nc(-c2ccc(CN3CC(C(=O)O)C3)cc2)no1	1000	0.44	2300	15	11	170	82	85	–
O=C(O)C1CN(Cc2ccc(-c3noc(-c4noc(-c5ccccc5)c4-c4ccccc4)n3)cc2)C1	130	0.99	130	–	–	–	–	–	–
CCCc1c(-c2nc(-c3ccc(CN4CC(C(=O)O)C4)cc3)no2)noc1-c1ccccc1	1300	0.44	2900	31	7.9	250	60	85	–
CC(C)Cc1onc(-c2nc(-c3ccc(CN4CC(C(=O)O)C4)cc3)no2)c1C(F)(F)F	6200	0.39	16000	6	280	1600	83	88	–
O=C(O)C1CN(Cc2ccc(-c3noc(-c4cc(-c5ccccc5)on4)n3)cc2)C1	6300	44	150	–	–	140	0	22	–
CC(C)Cc1c(-c2nc(-c3ccc(CN4CC(C(=O)O)C4)cc3)no2)noc1-c1ccccc1	730	0.56	1300	6	30	190	82	80	–
Cc1c(-c2nc(-c3ccc(CN4CC(C(=O)O)C4)cc3)no2)noc1-c1ccccc1	> 31	5	> 6300	41	6.4	260	0	68	–
CCCc1c(-c2nc(-c3ccc(CN4CC(C(=O)O)C4)cc3)no2)noc1CC(C)C	850	0.3	2900	33	41	1300	78	86	–
CCCCc1c(-c2nc(-c3ccc(CN4CC(C(=O)O)C4)cc3)no2)noc1-c1ccccc1	–	–	–	16	5	81	60	82	–
